Data: paper PMC7822874, “Chemoprotective antimalarials identified through quantitative high-throughput screening of Plasmodium blood and liver stage parasites” (Scientific Reports, 2021)
Several values for one entry are separate records, joined by “and”; a condition that tells them apart may be missing. Equal values may be shown once. Read-outs that look alike come from different tables or passages of the source.

Columns and labels:
[1] = test system: P. berghei-ANKA-GFP-LucCON liver stage parasites in HepG2-A16-CD81EGFP cells; assay: P. berghei liver stage Pb-Luc assay, Method 1 (UCSD, 1536-well); for Pb-Luc signal, 1 uM, repeat 1: reference of the scale not given here; for Pb-Luc signal, 1 uM, repeat 2: reference of the scale not given here; for Pb-Luc signal, 1 uM, repeat 3: reference of the scale not given here; for Pb-Luc signal, 3 uM, repeat 1: reference of the scale not given here; for Pb-Luc signal, 3 uM, repeat 2: reference of the scale not given here; for Pb-Luc signal, 3 uM, repeat 3: reference of the scale not given here; assay type: cell-based, Plasmodium berghei; conditions: for Max Resp (signal direction of the dose response) / AC50 / Log AC50 (M): Method 1; for Max Resp (signal direction of the dose response): Decrease = decreasing P. berghei viability with dose, Increase = increasing signal, Inactive = no dose response; for activity at 1 µM / activity at 3 µM: 48 h, average of 2 wells, 1536-well plate; for activity at 1 µM: nominal 1 uM (10 mM stock), […] for 15 mM, 1.2 uM for 12 mM, 2 uM for 20 mM stock; for activity at 3 µM: nominal 3 uM (10 mM stock), 4.5 uM for 15 mM, 3.6 uM for 12 mM, 6 uM for 20 mM stock
in vitro = conditions: human
[2] = test system: Plasmodium falciparum Dd2 asexual blood stage parasites; assay: microbe, parasite or virus in culture; design: species or system Plasmodium falciparum Dd2 in human erythrocytes; single determination (one 11-point concentration-response curve); conditions: Plasmodium falciparum, DD2, Erythrocyte, 72 h; read-out: AC50
[3] = test system: luciferase-expressing P. berghei liver stage parasites in HepG2 cells; assay: Inhibition of liver-stage development assay (ILSDA), Method 2 (WRAIR, 96-well); assay type: cell-based, Plasmodium berghei; conditions: for Max Resp (signal direction of the dose response): Decrease = decreasing P. berghei viability with dose, Increase = increasing signal, Inactive = no dose response; for Activity direction (Decrease / Inactive): P. berghei liver stage
[4] = test system: T1, Plasmodium falciparum Dd2-attB-ScDHODH (transgenic line expressing yeast DHODH), asexual blood stages; assay: organism not typed; design: replicate k of 3 (each line is one of three independent assays; the three lines of one compound and parasite line follow each other); conditions: 72 h, n = 1
T1 construct: Dd2-attB-ScDHODH, the transgenic line that expresses yeast DHODH
How it was run: (§1)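 The transgenic line overexpresses fumarate-dependent yeast DHODH, bypassing parasite mETC and ubiquinone-dependent parasite DHODH. A subset of compounds was run in three independent assays on both lines, and line differences were tested by two-sided Student's t-test.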

[5] = test system: T2, Plasmodium falciparum Dd2-attB (parental line), asexual blood stages; assay: microbe, parasite or virus in culture; design: replicate k of 3 (each line is one of three independent assays; the three lines of one compound and parasite line follow each other); conditions: n = 1; for Individual replicates / Log AC50 (M): 72 h; for AC50: Plasmodium falciparum, DD2, 72 h, read-out: Individual replicates / Log AC50 (converted)
T2 construct: Dd2-attB, the isogenic parental line
How it was run: as §1

[6] = Hill fit, 50% of maximum activity response, read-out: AC50
[7] = log10 of molar AC50 from Hill fit
[8] = Plasmodium berghei, repeat 1, read-out: Pb-Luc signal, 1 uM, repeat 1
[9] = Plasmodium berghei, repeat 2, read-out: Pb-Luc signal, 1 uM, repeat 2
[10] = Plasmodium berghei, repeat 3, read-out: Pb-Luc signal, 1 uM, repeat 3
[11] = Plasmodium berghei, repeat 1, read-out: Pb-Luc signal, 3 uM, repeat 1
[12] = Plasmodium berghei, repeat 2, read-out: Pb-Luc signal, 3 uM, repeat 2
[13] = Plasmodium berghei, repeat 3, read-out: Pb-Luc signal, 3 uM, repeat 3
[14] = Plasmodium berghei, Hill fit, 50% of maximum activity response, read-out: AC50
[15] = Plasmodium berghei, log10 of molar AC50 from Hill fit, read-out: Log AC50 (converted)
[16] = HepG2-A16-CD81EGFP cells, uninfected
[17] = nominal 1 uM (10 mM stock), […] for 15 mM, 1.2 uM for 12 mM, 2 uM for 20 mM stock, average of 2 wells, repeat 2
[18] = nominal 3 uM (10 mM stock), 4.5 uM for 15 mM, 3.6 uM for 12 mM, 6 uM for 20 mM stock, average of 2 wells, repeat 2
[19] = Method 2, Hill fit, 50% of maximum activity response, read-out: AC50
[20] = Method 2, log10 of molar AC50 from Hill fit

For `CCC(CC)c1cc([C@H]2CN3CC[C@H]2C[C@@H]3CN[S+](=O)([O-])c2cccs2)nc(-c2ccncc2)n1` [NCGC00396883-01], the “Max Resp (signal direction of the dose response)” value (“Max Resp” below) [1] was “Decrease”, the AC50 [1, 6] was 0.708 µM and the “Log AC50 (M)” value [1, 7] was -6.150 M. It also gave an activity at 1 µM [1, 8] of 64%, an activity at 1 µM [1, 9] of 69% and an activity at 1 µM [1, 10] of 109%. For the same molecule, the activity at 3 µM [1, 11] was 37.8%, the activity at 3 µM [1, 12] was 32.5% and the activity at 3 µM [1, 13] was 35.3%. For the same molecule, the AC50 [1, 14] was 0.501 µM, the AC50 [1, 15] was 0.501 µM and the viability at 48 h, 1 µM (in vitro) was 99.7%. For the same molecule, the viability at 48 h, 3 µM (in vitro) was 102%, the “HepG2 viability signal, 1 uM, repeat 2” value (HepG2-A16-CD81EGFP cells; human, 48 h, 1 µM) was 98.83% and the “HepG2 viability signal, 3 uM, repeat 2” value (HepG2-A16-CD81EGFP cells; human, 48 h, 3 µM) was 99.98%. The AC50 [2] was 2.37 µM, the “Max Resp” value ([3]; Method 2) was “Decrease” and the AC50 ([3]; Plasmodium berghei, HepG2, Method 2, Hill fit, 50% of maximum activity response, read-out: AC50) was 0.631 µM. It also gave an AC50 ([3]; Plasmodium berghei, HepG2, Method 2, log10 of molar AC50 from Hill fit, read-out: Log AC50 (converted)) of 0.631 µM.

For `COc1ccc(Nc2cnc3ccc(-c4ccc(OC)c(OC)c4)nn23)cc1` [NCGC00412624-01], the “Max Resp” value [1] was “Decrease”, the activity at 1 µM [1, 8] was 3.08% and the activity at 1 µM [1, 9] was 5.39%. For the same molecule, the activity at 1 µM [1, 10] was 3.47%, the activity at 3 µM [1, 11] was -0.46% and the activity at 3 µM [1, 12] was -0.86%. It also gave an activity at 3 µM [1, 13] of -0.14%, an AC50 [1, 14] of 1.41 µM and an AC50 [1, 15] of 1.41 µM. For the same molecule, the viability at 48 h, 1 µM (in vitro; [16]) was 101%, the viability at 48 h, 3 µM (in vitro; [16]) was 109% and the “HepG2 viability signal, 1 uM, repeat 2” value (HepG2-A16-CD81EGFP cells; [17]) was 100.79%. For the same molecule, the “HepG2 viability signal, 3 uM, repeat 2” value (HepG2-A16-CD81EGFP cells; [18]) was 112.23%, the AC50 [2] was 1.72 µM and the “Activity direction (Decrease / Inactive)” value ([3]; Method 2, dose response) was “Inactive”.

For `Cc1ccc(NC2=C(c3ccc(C(F)(F)F)cc3)C(=O)c3ccccc32)cc1F` [NCGC00107266-01], the “Max Resp” value [1] was “Decrease”, the AC50 [1, 6] was 1.41 µM and the “Log AC50 (M)” value [1, 7] was -5.850 M. For the same molecule, the AC50 [1, 14] was 1.26 µM, the AC50 [1, 15] was 1.26 µM and the “Individual replicates / Log AC50 (M)” value [4] was -5.4986 Log AC50 (M) and -5.1986 Log AC50 (M) and -5.3986 Log AC50 (M). The “Individual replicates / Log AC50 (M)” value [5] was -6.2486 Log AC50 (M) and -6.2986 Log AC50 (M), the AC50 [5] was 0.399 µM and the AC50 [2] was 1.88 µM. For the same molecule, the “Max Resp” value ([3]; Method 2) was “Decrease”, the AC50 [3, 19] was 0.079 µM and the “Log AC50 (M)” value [3, 20] was -7.100 M.

For `Cc1ccc(NC2=C(c3ccc(C(F)(F)F)cc3)C(=O)c3ccccc32)cc1C` [NCGC00107300-01], the “Max Resp” value [1] was “Decrease”, the AC50 [1, 6] was 0.794 µM and the “Log AC50 (M)” value [1, 7] was -6.100 M. The AC50 [1, 14] was 0.447 µM, the AC50 [1, 15] was 0.447 µM and the “Individual replicates / Log AC50 (M)” value [4] was -5.4986 Log AC50 (M) and -5.2486 Log AC50 (M). For the same molecule, the AC50 ([4]; read-out: Individual replicates / Log AC50 (converted)) was 3.99 µM, the “Individual replicates / Log AC50 (M)” value [5] was -5.7486 Log AC50 (M) and -5.5986 Log AC50 (M) and the AC50 [5] was 1.59 µM. The AC50 [2] was 2.11 µM, the “Max Resp” value ([3]; Method 2) was “Decrease” and the AC50 [3, 19] was 0.398 µM. For the same molecule, the “Log AC50 (M)” value [3, 20] was -6.400 M.

`Cc1cc(C)cc(C(=O)Nc2ccc3c(N4CCCC4)ncnc3c2)c1` [NCGC00425487-01] gave an activity at 1 µM [1, 8] of 67.5%, an activity at 1 µM [1, 9] of 99.6% and an activity at 1 µM [1, 10] of 77.5%. It also gave an activity at 3 µM [1, 11] of 25.9%, an activity at 3 µM [1, 12] of 34.2% and an activity at 3 µM [1, 13] of 15.9%. It also gave an AC50 [1, 14] of 1 µM, an AC50 [1, 15] of 1 µM and a viability at 48 h, 1 µM (in vitro; [16]) of 89%. The viability at 48 h, 3 µM (in vitro; [16]) was 27.1%, the “HepG2 viability signal, 1 uM, repeat 2” value (HepG2-A16-CD81EGFP cells; [17]) was 92.65% and the “HepG2 viability signal, 3 uM, repeat 2” value (HepG2-A16-CD81EGFP cells; [18]) was 36.60%. The AC50 [2] was 2.37 µM, the “Activity direction (Decrease / Inactive)” value ([3]; Method 2, dose response) was “Decrease” and the AC50 ([3]; Plasmodium berghei, HepG2, P. berghei liver stage, Method 2, dose response, read-out: AC50) was 15.8 µM. It also gave an AC50 ([3]; Plasmodium berghei, HepG2, P. berghei liver stage, Method 2, dose response, read-out: Log AC50 (converted)) of 15.8 µM.
